Reference: patent US11571418B2, “Platinum compounds that inhibit constitutive STAT3 signaling and induce cell cycle arrest and apoptosis of malignant cells” (H. LEE MOFFITT CANCER CENTER AND RESEARCH INSTITUTE, INC., priority 2011, dated 2023)

What was measured:
[1] = system: hSIE oligonucleotide probe; experiment: Pre-treatment of hSIE oligonucleotide with compound, then Stat3 binding by EMSA; details: oligonucleotide treated 30 min, then radiolabeled
Experimental: To investigate the possibility that PLATINUM-401 might alter the integrity of the hSIE oligonucleotide probe that is used in the DNA-binding activity studies and thereby inhibit Stat3 binding, the oligonucleotide was first treated with PLATINUM-401 for 30 min. Pre-treated oligonucleotide was then radiolabeled and tested for its ability to bind to activated Stat3 in vitro. […] While PLATINUM-401 was in direct contact with the oligonucleotide probe during the pre-treatment stage and prior to radiolabeling of the probe, it is unlikely to have been retained with the oligonucleotide probe following purification of the probe and therefore would not have come into contact with Stat3 protein at the time of the in vitro DNA-binding assay.

[2] = system: IL-6-induced Stat3 activation in NIH3T3; experiment: IL-6-induced Stat3 activation in NIH3T3 (EMSA of nuclear extracts); type: cell-based, mouse
Experimental: FIGS. 3A-3D. Inhibition of Stat3-mediated gene expression by PLATINUM-401. (FIG. 3A) and (FIG. 3B) v-Src-transformed mouse fibroblasts that stably express Stat3-dependent (NIH3T3/v-Src/pLucTKS3) and Stat3-independent (NIH3T3/v-Src/pRLSRE) luciferase reporters or β-galactosidase (β-gal), as well as normal mouse fibroblast (NIH3T3) transiently transfected with pLucTKS3, pGL2-VEGF-Luc, NFkB-Luc or pLucSRE together with or without v-Src were treated with or without PLATINUM-401 for 48 h. Cytosolic extracts were then prepared from cells for luciferase and […] activities measurements. Values are the means and S.D. of three to five independent assays; (FIG. 3C) and (FIG. 3D) Nuclear extracts or whole cell lysates were prepared from IL-6-stimulated normal mouse fibroblasts (NIH3T3) or their v-Src-transformed counterpart (NIH3T3/v-Src) that are treated with or without PLATINUM-401 for different times. Samples of equal total proteins were then subjected to in vitro DNA-binding activity and EMSA analysis or for SDS-PAGE and Western blot analysis for phosphorylated and total Stat3. […]
To further investigate the activities of PLATINUM-401, the inventors treated malignant cells and measured effects on Stat3 signaling. […]

NIH3T3/v-Ras fibroblasts = experiment: Soft-agar colony formation assay; type: cell-based, mouse; details: treated every 2-3 days until large colonies evident
Experimental: (§1) FIG. 4. Abrogation of Stat3-dependent viral Src transformation. Viral Src-transformed fibroblasts (NIH3T3/v-Src) and their Ras-transformed counterparts (NIH3T3/v-Ras) were seeded in soft agar and growing cells were treated every 2-3 days with or without the indicated concentrations of PLATINUM-401 until large colonies were evident. Number of colonies of cells in soft agar were counted and expressed as % of control (non-treated) cells. Values are the mean and S.D. of the three independent assays.
(§2) Soft-agar colony formation assays—Colony formation assays were carried out in six-well dishes as previously described (Turkson et al., 1999). In brief, each well contained 1.5 ml of 1% agarose in DMEM as the bottom layer, and 1.5 ml of 0.5% agarose in DMEM containing 4000 or 6000 NIH3T3/v-Src or NIH3T3/v-Ras fibroblasts, respectively, as the top layer. Treatment with PLATINUM-401 was initiated 1 day after seeding cells by adding 75-100 μl of medium with or without compound, and repeated every three days, until large colonies were evident. Colonies were quantified by staining with 20 μl of 1 mg/ml iodonitrotetrazolium violet, incubating at 37° C. overnight and counting the next day.
(§3) PLATINUM-401 was next evaluated for effects on Stat3-mediated v-Src transformation (Turkson et al., 1998; Bromberg et al., 1998; Turkson et al., 1999).

NIH3T3/v-Src fibroblasts = experiment: Soft-agar colony formation assay; type: cell-based, mouse; details: treated every 2-3 days until large colonies evident
Experimental: as §1, §2, §3

## CC(O)CN1CCN(CC(C)O)CC1 (centres unmarked) [PLATINUM-401]
[1]
  effect of pre-treatment of hSIE oligonucleotide on its ability to bind activated Stat3: no observable effect
[2]; IL-6-stimulated NIH3T3
  time at which IL-6-induced Stat3 activation was inhibited: ≤ 30 min
[2]; time- and dose-dependent
  ligand-induced activation of Stat3 DNA-binding activity: inhibits
NIH3T3/v-Ras fibroblasts
  growth in soft agar: only partially inhibits growth
NIH3T3/v-Src fibroblasts
  growth in soft agar: strongly suppresses growth
